Measured values from article PMC8151276, “An Integrated Approach toward NanoBRET Tracers for Analysis of GPCR Ligand Engagement” (Molecules, 2021).

How the values were obtained:
Assay type in all cases: binding
FZD1 = target: T1, FZD1 (Homo sapiens, UniProt Q9UP38); test: NanoBRET screen HiBiT-FZD1 in HEK293
T1 construct: purchased Promega (in-house HiBiT-GPCR construct library, NanoBRET)
Method: (§1) Each tracer candidate was screened across the entire library of HiBiT-GPCR constructs using NanoBRET as the detection modality. As depicted in Figure 4A, the specificity of interactions was evaluated through decrease in BRET due to competitive displacement of a bound tracer by excess parental compound. Each tracer was analyzed for binding to each HiBiT-GPCR fusion in the absence and in the presence of competing parental compound. Briefly, HEK293 cells were transfected with HiBiT-GPCR constructs diluted into promoterless DNA to reduce expression and maximize translocation to the cell surface. Each tracer candidate was then screened at concentrations of 1 μM and 0.1 μM across cells expressing these fusions. Cells were treated for 1.5 h with tracer either alone or in the presence of 20 μM competing parental compound (i.e., control). BRET was measured upon addition of purified LgBiT and subsequent complementation with HiBiT genetically fused to a GPCR. The specificity of interactions was assessed through a decrease in BRET signal due to competitive displacement of the bound tracer. To further gauge the robustness of these interactions, the fold response over the control (i.e., BRETtracer/BRETcontrol) was calculated. We chose a 1.5-fold response, which translates to ≥7-fold signal over noise as the minimal threshold required to score an interaction as positive. […]. Below we highlight the screening results obtained for our exemplary fluorescent tracers based on Clozapine, Amitriptyline and AZD1283.
(§2) HiBiT-GPCR DNA constructs were diluted in 10 mM Tris pH 8 to a final concentration of 0.01 μg/μL, arrayed in 96-well plates and stored at −20 °C. For transfection, HEK293 cells were suspended in Opti-MEM (without phenol red) supplemented with 2% fetal bovine serum (Seradigm) and 100 units/mL penicillin–streptomycin (Gibco) at a final concentration of 220,000 cells/mL and dispensed into white 96-well plates at 90 μL/well. Subsequent transfections and screens were carried using an Agilent Bravo Automated Liquid Handling Platform. First, the 96-well HiBiT DNA arrays were diluted 25-fold in Opti-MEM (without serum or phenol red) to a final concentration of 0.0004 μg/μL and 20 μL of the diluted DNAs were transferred into new 96-well plates. Next, promoterless carrier DNA (1 μg/μL) was diluted 25-fold (0.04 μg/μL) and then dispensed into the diluted arrays at 20 μL/well. Following brief mixing, Viafect transfection reagent (Promega) diluted 16-fold into Opti-MEM was dispensed into the plates at 40 μL/well. After mixing by pipetting, plates were incubated for 10 min on the pipetting station deck. The DNA-transfection reagent complexes were then added to plates containing cells. To facilitate the screen, 10 μL of DNA-transfection reagent complexes were added in duplicates to the top 4 and bottom 4 rows, resulting in two identical 48-well arrays per plate. Plates with transfected cells were incubated for 18–20 h at 37 °C/5% CO2. A screen of each tracer across the entire library using two different concentrations requires duplicate plates of transfected cells. Depending on the number of tracers being screened, transfections can be scaled up using the same ratios. The next day, for each tracer, four 20× screening solutions in tracer dilution buffer (Promega) were prepared: two duplicates at final concentration of 20 μM and two duplicates at a final concentration of 2 μM. A competing unmodified compound was added to one of each duplicate at a final concentration of 400 μM. The four resulting solutions were diluted 4-fold in Opti-MEM without serum or phenol red to generate 5× solutions (5 µM and 0.5 µM tracer +/− 100 μM competing compound). To screen the library, a BioTek MultiFlo FX liquid dispenser was used to dispense 22.5 µL of tracer solution to the top 4 rows and 22.5 µL tracer + competing compound solution to the 4 bottom rows. Plates were briefly mixed on an orbital shaker and incubated for 1.5 h at room temperature. […]

F2RL1 = target: T2, F2RL1 (Homo sapiens, UniProt P55085); test: NanoBRET screen HiBiT-F2RL1 in HEK293
T2 construct: purchased Promega (in-house HiBiT-GPCR construct library, NanoBRET)
T2 sequence (P55085 26-397): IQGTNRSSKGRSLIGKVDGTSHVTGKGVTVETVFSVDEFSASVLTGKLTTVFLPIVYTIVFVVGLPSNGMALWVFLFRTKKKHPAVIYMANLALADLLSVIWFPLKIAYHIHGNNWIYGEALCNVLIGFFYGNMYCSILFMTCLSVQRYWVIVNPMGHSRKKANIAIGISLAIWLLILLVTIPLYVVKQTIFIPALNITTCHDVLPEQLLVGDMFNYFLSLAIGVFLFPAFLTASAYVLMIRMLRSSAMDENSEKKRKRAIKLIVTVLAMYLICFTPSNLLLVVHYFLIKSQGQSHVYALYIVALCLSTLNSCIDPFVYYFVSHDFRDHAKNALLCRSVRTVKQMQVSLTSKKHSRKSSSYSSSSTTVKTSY
Method: as §1, §2

MLNR = target: T3, MLNR (Homo sapiens, UniProt O43193); test: NanoBRET screen HiBiT-MLNR in HEK293
T3 construct: purchased Promega (in-house HiBiT-GPCR construct library, NanoBRET)
Method: as §1, §2

FSHR = target: T4, FSHR (Homo sapiens, UniProt P23945); test: NanoBRET screen HiBiT-FSHR in HEK293
T4 construct: purchased Promega (in-house HiBiT-GPCR construct library, NanoBRET)
T4 sequence (P23945 18-695): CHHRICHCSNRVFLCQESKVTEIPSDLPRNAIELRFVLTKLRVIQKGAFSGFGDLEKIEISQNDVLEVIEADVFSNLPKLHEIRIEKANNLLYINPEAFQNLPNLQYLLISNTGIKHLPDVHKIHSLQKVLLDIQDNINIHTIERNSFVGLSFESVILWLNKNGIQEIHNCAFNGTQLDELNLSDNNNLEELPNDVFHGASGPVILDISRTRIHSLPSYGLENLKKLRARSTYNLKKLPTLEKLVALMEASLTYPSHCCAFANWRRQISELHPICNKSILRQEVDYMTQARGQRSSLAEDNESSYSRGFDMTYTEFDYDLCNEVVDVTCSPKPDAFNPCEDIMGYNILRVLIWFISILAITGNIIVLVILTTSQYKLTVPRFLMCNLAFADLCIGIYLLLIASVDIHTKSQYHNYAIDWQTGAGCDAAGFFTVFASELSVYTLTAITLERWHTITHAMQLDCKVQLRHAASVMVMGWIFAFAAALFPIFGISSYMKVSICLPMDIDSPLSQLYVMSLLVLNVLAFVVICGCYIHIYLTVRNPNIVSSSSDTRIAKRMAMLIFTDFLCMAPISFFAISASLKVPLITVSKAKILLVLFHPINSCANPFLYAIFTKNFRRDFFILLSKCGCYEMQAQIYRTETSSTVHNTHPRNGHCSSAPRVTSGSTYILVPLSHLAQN
Method: as §1, §2

SMO = target: T5, SMO (Homo sapiens, UniProt Q99835); test: NanoBRET screen HiBiT-SMO in HEK293
T5 construct: purchased Promega (in-house HiBiT-GPCR construct library, NanoBRET)
Method: as §1, §2

SSTR3 = target: T6, SSTR3 (Homo sapiens, UniProt P32745); test: NanoBRET screen HiBiT-SSTR3 in HEK293
T6 construct: purchased Promega (in-house HiBiT-GPCR construct library, NanoBRET)
Method: as §1, §2

T6 sequence (P32745 whole entry): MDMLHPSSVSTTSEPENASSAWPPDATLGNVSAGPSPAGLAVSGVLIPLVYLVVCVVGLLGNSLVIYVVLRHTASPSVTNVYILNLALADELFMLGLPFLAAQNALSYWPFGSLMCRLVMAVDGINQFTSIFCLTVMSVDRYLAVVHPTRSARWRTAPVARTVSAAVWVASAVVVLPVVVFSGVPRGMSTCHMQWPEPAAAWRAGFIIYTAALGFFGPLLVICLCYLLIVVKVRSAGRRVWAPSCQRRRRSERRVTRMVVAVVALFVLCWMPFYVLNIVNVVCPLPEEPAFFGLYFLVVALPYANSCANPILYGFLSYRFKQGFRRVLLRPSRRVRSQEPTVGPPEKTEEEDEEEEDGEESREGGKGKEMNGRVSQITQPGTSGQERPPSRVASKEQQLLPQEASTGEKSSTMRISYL
T1 sequence (Q9UP38 70-647): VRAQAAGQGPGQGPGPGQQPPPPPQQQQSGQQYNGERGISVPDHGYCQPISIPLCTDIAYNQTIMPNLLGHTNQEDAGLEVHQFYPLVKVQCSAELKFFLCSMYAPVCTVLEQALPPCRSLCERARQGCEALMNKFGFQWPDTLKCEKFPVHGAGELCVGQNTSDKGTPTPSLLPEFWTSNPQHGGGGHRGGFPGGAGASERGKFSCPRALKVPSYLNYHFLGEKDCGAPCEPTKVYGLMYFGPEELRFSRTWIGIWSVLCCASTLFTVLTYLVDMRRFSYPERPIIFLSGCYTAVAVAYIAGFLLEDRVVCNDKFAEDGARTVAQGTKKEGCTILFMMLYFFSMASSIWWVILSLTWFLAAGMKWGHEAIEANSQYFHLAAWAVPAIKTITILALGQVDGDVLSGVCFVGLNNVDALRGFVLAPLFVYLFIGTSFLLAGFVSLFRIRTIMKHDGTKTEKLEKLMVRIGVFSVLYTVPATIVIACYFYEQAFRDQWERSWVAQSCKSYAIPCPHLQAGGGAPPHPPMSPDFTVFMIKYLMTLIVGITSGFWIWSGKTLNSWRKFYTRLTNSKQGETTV
T3 sequence (O43193 whole entry): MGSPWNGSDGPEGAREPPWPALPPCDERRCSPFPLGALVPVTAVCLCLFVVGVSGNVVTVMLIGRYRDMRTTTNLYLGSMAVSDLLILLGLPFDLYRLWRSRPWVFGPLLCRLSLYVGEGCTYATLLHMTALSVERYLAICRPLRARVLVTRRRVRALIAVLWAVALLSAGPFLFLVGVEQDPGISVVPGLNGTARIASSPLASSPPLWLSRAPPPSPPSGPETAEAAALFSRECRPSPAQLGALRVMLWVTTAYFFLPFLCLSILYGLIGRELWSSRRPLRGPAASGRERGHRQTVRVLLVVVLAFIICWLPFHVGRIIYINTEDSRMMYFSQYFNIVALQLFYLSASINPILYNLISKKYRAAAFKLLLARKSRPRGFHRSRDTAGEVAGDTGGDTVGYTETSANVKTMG
T5 sequence (Q99835 28-787): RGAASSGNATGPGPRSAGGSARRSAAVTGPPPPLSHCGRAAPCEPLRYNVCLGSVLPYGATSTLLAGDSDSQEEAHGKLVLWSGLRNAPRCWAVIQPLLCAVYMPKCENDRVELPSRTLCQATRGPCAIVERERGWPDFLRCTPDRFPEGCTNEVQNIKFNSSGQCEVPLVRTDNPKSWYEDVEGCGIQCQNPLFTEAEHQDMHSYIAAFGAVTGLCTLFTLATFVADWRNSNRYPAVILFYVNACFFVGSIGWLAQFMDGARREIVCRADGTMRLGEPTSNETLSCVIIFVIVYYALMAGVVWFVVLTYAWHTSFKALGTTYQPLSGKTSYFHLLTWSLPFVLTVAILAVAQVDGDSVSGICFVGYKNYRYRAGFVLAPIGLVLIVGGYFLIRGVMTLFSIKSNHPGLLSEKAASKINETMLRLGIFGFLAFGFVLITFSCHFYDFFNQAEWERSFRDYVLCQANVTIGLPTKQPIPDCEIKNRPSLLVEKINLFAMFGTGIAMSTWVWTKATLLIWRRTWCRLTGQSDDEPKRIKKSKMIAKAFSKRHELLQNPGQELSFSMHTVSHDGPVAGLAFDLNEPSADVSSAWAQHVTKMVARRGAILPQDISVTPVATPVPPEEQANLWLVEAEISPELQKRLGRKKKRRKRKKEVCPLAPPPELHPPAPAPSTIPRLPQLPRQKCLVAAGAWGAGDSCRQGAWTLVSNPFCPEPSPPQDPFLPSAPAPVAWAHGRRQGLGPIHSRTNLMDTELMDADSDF

| NanoBRET Fold Response (F2RL1; 0.1μM tracer) | NanoBRET Fold Response (F2RL1; 1μM tracer) | NanoBRET Fold Response (MLNR; 0.1μM tracer) | NanoBRET Fold Response (MLNR; 1μM tracer) | NanoBRET Fold Response (FSHR; 0.1μM tracer) | NanoBRET Fold Response (FSHR; 1μM tracer) | NanoBRET Fold Response (FZD1; 0.1μM tracer) | NanoBRET Fold Response (FZD1; 1μM tracer) | NanoBRET Fold Response (SMO; 0.1μM tracer) | NanoBRET Fold Response (SMO; 1μM tracer) | NanoBRET Fold Response (SSTR3; 0.1μM tracer) | NanoBRET Fold Response (SSTR3; 1μM tracer) | SMILES | other results |
| --- | --- | --- | --- | --- | --- | --- | --- | --- | --- | --- | --- | --- | --- |
|  |  |  |  |  |  |  |  |  |  |  |  | CN(CCC=C1c2ccccc2CCc2ccccc21)C(=O)CCOCCOCCOCCOCCNC(=O)CCc1ccc2n1[B-](F)(F)[N+]1=C(c3ccc[nH]3)C=CC1=C2 [Amitriptyline-e-2-NB590] | NanoBRET Fold Response (FZD1; tracer at 1μM): 0.98 |
| 1.21 | 0.93 | 1.00 | 0.92 | 1.08 | 1.08 | 1.10 | 1.10 | 0.82 | 1.37 | 1.03 | 1.08 | COc1ccc2c(n1)c(CCNC(C)=O)cn2CCNC(=O)CCc1ccc2n1[B-](F)(F)[N+]1=C(c3ccc[nH]3)C=CC1=C2 [Azamelatonin-1-NB590] |  |
| 0.95 | 0.83 | 0.60 | 0.87 | 1.32 | 1.02 | 0.86 | 1.05 | 0.86 | 1.25 | 0.94 | 1.01 | COc1ccc2[nH]c(-c3ccc(CNC(=O)CCOCCOCCOCCOCCNC(=O)CCc4ccc5n4[B-](F)(F)[N+]4=C(c6ccc[nH]6)C=CC4=C5)cc3)c(CCNC(C)=O)c2n1 [AzomelatoninICO9-2-NB590] |  |
|  |  |  |  |  |  |  |  |  |  |  |  | O=C(CCOCCOCCOCCOCCNC(=O)CCc1ccc2n1[B-](F)(F)[N+]1=C(c3ccc[nH]3)C=CC1=C2)NCCCN1CCN(C2=Nc3cc(Cl)ccc3Nc3ccccc32)CC1 [Clozapine-a-2-NB590] | NanoBRET Fold Response (F2RL1; F2RL1, 0.1μM tracer): 0.89; NanoBRET Fold Response (F2RL1; F2RL1, 1μM tracer): 1.16; NanoBRET Fold Response (MLNR; MLNR, 0.1μM tracer): 0.94; NanoBRET Fold Response (MLNR; MLNR, 1μM tracer): 1.08; NanoBRET Fold Response (FSHR; FSHR, 0.1μM tracer): 0.99; NanoBRET Fold Response (FSHR; FSHR, 1μM tracer): 1.32; NanoBRET Fold Response (FZD1; FZD1, 0.1μM tracer): 0.98; NanoBRET Fold Response (FZD1; FZD1, 1μM tracer): 0.93; NanoBRET Fold Response (SMO; SMO, 0.1μM tracer): 1.00; NanoBRET Fold Response (SMO; SMO, 1μM tracer): 0.64; NanoBRET Fold Response (SSTR3; SSTR3, 0.1μM tracer): 0.91; NanoBRET Fold Response (SSTR3; SSTR3, 1μM tracer): 1.05 |
